From ChEMBL document CHEMBL1201862, “PubChem BioAssay data set” (2004) come the findings set out here.

In one series the target is T1, Aminopeptidase N (Plasmodium falciparum FcB1/Columbia, UniProt O96935).
T1 sequence (O96935 whole entry): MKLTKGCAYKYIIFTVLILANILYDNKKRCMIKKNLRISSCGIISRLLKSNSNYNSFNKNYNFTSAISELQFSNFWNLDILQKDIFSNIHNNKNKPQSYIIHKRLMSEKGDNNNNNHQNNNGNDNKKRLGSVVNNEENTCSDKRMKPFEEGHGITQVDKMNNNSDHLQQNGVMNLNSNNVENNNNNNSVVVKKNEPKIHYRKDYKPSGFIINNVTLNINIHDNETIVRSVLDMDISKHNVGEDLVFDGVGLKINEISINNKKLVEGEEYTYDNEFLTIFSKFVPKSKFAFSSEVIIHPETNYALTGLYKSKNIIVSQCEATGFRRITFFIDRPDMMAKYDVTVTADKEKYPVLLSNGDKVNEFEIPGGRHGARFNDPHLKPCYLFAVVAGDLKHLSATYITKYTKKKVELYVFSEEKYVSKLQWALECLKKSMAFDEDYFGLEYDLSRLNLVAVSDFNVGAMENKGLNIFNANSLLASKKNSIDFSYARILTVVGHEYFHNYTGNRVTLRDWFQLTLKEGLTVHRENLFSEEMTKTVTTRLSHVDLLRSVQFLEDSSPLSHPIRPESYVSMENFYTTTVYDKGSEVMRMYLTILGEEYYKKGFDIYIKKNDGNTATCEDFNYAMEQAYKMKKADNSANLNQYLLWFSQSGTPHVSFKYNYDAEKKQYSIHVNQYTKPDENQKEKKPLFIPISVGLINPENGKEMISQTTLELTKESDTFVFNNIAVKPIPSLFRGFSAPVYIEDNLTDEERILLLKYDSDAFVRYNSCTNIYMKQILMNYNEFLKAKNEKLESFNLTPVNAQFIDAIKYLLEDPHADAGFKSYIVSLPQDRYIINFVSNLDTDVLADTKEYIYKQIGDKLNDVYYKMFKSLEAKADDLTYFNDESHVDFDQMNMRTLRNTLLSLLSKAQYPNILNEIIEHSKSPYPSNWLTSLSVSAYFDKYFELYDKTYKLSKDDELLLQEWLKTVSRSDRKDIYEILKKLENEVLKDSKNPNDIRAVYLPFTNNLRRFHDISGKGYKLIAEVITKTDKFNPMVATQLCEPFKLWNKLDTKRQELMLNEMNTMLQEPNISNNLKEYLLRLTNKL
In words: P. falciparum M1AAP inhibitors, biochemical, fluorogenic H-Leu-NHMec substrate, 1536-well (AID 1445). On the set-up: species or system Plasmodium falciparum 3D7, 3D7.

Series [1] concerns the target T2, RNA-binding protein pos-1 (Caenorhabditis elegans, UniProt G5EF15).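 Further: purified POS-1 fused to maltose binding protein made in E. coli; potency of compounds blocking POS-1 binding to fluorescent RNA.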
T2 sequence (G5EF15 whole entry): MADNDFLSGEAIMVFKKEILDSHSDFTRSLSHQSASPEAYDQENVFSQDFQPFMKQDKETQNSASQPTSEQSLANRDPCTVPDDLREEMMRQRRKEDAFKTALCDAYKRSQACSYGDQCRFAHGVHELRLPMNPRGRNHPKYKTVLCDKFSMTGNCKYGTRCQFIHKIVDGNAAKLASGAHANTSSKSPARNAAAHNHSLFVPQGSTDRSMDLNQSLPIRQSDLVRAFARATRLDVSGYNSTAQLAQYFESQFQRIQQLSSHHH
Put plainly: inhibitors of POS-1/mex-3 RNA binding, dose response, biochemical, fluorescence polarization (AID 1964). (In fluorescence polarisation assays a small probe gives low polarisation when free and higher when bound to something large.)

For series [2], the target named is T3, Zinc finger protein mex-5 (Caenorhabditis elegans, UniProt Q9XUB2).
T3 sequence (Q9XUB2 whole entry): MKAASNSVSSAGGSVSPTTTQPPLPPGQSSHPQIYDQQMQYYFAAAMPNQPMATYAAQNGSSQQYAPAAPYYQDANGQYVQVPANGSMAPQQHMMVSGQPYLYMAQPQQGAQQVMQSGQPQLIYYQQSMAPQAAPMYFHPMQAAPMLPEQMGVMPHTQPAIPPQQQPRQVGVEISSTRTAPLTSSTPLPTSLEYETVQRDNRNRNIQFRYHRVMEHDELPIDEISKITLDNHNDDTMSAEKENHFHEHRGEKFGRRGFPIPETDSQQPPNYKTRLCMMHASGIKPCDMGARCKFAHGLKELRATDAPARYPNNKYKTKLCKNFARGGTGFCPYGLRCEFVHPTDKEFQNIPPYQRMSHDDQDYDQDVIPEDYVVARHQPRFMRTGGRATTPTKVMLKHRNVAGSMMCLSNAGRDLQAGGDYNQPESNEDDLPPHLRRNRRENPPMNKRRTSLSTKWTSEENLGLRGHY
Put plainly: MEX-5/TCR-2 RNA interaction inhibitors, dose response, biochemical, C. elegans, fluorescence polarization (AID 1960).

Series [3] has as its target FAD-linked sulfhydryl oxidase ALR (Homo sapiens, UniProt P55789). In words: inhibitors of human ALR sulfhydryl oxidase, dose response, biochemical, H2O2 detection, luminescence, cherry-pick (AID 493248).
For series [4], the target named is Dual specificity tyrosine-phosphorylation-regulated kinase 1A (Rattus norvegicus, UniProt Q63470). It counts as biochemical, Homo sapiens.
A further series addresses T4, Caspase-6 (Homo sapiens, UniProt P55212).
T4 sequence (P55212 whole entry): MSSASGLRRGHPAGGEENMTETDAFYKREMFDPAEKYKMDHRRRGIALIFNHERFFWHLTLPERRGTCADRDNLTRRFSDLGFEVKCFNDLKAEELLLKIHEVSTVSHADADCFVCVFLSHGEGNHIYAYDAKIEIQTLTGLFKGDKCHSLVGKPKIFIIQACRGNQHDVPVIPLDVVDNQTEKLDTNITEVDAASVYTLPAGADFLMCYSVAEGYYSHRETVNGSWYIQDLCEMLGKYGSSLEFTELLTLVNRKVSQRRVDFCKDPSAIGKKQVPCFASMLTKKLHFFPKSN
In words: human caspase-6 inhibitors, dose response, biochemical, VEID-R110 fluorescence, cherry-pick (AID 720632).

The target in series [5] is T5, RNA-editing ligase 1, mitochondrial (Trypanosoma brucei brucei, UniProt P86926).
T5 sequence (P86926 whole entry): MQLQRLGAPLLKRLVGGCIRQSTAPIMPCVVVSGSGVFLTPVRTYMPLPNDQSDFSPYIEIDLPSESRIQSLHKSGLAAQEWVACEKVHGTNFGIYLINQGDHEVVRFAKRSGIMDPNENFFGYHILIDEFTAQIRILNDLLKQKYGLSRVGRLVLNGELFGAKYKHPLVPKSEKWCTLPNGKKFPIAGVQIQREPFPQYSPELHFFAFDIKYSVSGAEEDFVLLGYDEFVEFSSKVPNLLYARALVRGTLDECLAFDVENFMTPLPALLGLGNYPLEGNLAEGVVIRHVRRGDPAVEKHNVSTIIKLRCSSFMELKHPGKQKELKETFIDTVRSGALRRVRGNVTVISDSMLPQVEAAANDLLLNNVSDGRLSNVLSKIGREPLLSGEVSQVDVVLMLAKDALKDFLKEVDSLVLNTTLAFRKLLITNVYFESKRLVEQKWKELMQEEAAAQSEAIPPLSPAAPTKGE
In words: TbREL1 ligase inhibitors, dose response, biochemical, fluorescence, Trypanosoma brucei (AID 1117295). It counts as functional.

The target in a further series is Cytochrome P450 2C19 (Homo sapiens, UniProt P33261). Put plainly: Cytochrome panel assay with activity outcomes. Panel member name: p450-cyp2c19 Compounds with AC50 equal or less than 10 uM are considered active. As to conditions: read-out: AC50. It counts as functional.
Cytochrome P450 2C19, sequence (P33261 whole entry): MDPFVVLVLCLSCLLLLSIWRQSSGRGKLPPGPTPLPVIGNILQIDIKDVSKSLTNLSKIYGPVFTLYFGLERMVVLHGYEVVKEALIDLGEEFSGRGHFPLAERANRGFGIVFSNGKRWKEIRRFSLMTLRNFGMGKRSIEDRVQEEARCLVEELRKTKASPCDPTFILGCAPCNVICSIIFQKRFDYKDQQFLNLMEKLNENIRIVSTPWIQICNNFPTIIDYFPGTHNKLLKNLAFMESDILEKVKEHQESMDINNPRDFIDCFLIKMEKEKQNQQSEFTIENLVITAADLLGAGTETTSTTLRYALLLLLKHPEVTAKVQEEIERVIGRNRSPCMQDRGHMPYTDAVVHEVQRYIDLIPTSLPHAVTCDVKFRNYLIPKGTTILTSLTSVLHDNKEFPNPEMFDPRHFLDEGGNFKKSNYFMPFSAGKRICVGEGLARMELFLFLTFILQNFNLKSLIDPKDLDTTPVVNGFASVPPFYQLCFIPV
In a further series the target is Cytochrome P450 2C9 (Homo sapiens, UniProt P11712).
Cytochrome P450 2C9, sequence (P11712 whole entry): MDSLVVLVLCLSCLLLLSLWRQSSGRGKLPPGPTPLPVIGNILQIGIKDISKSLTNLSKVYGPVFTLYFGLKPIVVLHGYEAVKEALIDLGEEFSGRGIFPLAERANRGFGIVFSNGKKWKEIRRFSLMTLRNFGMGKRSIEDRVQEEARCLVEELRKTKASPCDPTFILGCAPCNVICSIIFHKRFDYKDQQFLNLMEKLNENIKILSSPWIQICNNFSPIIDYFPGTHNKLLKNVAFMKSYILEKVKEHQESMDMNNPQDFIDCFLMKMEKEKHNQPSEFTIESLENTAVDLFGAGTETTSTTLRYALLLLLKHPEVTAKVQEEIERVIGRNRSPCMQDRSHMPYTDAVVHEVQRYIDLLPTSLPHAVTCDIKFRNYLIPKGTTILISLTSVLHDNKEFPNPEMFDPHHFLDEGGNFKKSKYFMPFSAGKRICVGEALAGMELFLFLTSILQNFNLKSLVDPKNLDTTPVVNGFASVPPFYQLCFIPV
A further series concerns the target Beta-galactosidase (Escherichia coli, UniProt Q8VNN2). Put plainly: PubChem AID 485352. The class given is functional.
The target in series [6] is T6, Type-1 angiotensin II receptor (Homo sapiens, UniProt P30556).
T6 sequence (P30556 whole entry): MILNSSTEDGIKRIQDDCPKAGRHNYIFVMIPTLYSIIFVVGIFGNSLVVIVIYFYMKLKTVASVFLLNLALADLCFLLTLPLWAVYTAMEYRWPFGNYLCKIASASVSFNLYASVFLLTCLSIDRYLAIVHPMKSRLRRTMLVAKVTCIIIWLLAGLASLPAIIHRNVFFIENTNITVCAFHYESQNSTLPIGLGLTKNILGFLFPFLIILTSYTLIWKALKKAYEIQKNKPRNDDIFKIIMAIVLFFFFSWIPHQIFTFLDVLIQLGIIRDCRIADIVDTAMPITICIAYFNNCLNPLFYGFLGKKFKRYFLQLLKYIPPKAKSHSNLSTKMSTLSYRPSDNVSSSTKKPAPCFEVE
Put plainly: AT1 receptor antagonists, dose response, selectivity assay for APJ receptor antagonist project, cell-based, uHTS hits (AID 463214).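 Further: antagonist potency against angiotensin II stimulated AT1 response.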 It counts as functional.

Series [7] addresses T7, Endoribonuclease toxin MazF (Escherichia coli K-12, UniProt P0AE70).
T7 sequence (P0AE70 whole entry): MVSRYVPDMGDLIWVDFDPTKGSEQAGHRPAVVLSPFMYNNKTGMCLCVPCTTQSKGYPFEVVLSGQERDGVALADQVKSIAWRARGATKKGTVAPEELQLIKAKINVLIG
Put plainly: MazF toxin RNase activators, dose response, biochemical, fluorescence, single-stranded RNA substrate, uHTS hits (AID 588481). It counts as functional.

The target of series [8] is T7, Endoribonuclease toxin MazF. Put plainly: fluorescent RNA oligo signal without MazF, dose response, counter-screen for MazEF activator project, biochemical, fluorescence, single-stranded RNase substrate (AID 588502). The class given is functional. (In general: Counterscreens check selectivity or assay interference.)
The target of series [9] is Arf-GAP with SH3 domain, ANK repeat and PH domain-containing protein 1 (Homo sapiens, UniProt Q9ULH1). It counts as functional.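 Further: biochemical fluorescence polarization dose–response screen measuring inhibition of ASAP1; ASAP1 GAP domain stimulating GTP hydrolysis by truncated human ARF1.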
Arf-GAP with SH3 domain, ANK repeat and PH domain-containing protein 1, sequence (Q9ULH1 whole entry, the tested form may be a part): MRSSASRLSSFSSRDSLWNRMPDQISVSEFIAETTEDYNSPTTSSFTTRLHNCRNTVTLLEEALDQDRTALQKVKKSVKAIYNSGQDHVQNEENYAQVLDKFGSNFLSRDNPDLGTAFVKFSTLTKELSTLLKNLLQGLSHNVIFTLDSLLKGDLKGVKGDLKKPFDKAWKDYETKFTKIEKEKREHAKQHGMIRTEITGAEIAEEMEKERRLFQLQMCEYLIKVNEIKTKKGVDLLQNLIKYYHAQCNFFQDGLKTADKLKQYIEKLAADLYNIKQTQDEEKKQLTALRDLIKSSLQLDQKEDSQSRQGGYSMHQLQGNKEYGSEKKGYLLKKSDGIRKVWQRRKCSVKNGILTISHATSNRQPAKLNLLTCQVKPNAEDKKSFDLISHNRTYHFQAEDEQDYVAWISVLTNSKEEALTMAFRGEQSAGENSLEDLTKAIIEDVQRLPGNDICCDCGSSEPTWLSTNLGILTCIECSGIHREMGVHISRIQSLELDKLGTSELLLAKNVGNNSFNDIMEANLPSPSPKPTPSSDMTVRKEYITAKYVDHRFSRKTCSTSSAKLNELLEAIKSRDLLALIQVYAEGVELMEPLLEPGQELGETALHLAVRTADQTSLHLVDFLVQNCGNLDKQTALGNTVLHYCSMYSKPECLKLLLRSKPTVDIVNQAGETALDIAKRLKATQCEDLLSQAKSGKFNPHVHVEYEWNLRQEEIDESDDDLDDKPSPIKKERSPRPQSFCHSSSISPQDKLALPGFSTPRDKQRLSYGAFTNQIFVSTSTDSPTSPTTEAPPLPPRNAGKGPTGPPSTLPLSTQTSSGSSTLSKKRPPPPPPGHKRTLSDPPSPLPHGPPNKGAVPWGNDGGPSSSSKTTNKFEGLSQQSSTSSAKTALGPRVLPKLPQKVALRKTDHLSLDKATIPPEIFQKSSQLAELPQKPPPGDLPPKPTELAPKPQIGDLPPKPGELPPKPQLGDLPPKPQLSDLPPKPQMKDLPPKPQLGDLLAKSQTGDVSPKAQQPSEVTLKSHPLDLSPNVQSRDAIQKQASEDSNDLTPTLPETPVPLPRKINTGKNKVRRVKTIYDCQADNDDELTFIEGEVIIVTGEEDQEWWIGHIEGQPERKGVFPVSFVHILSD
The next series concerns the target T8, Cytochrome P450 1A2 (Homo sapiens, UniProt P05177).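 Further: PubChem cytochrome P450 panel assay, CYP1A2 panel member.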
T8 sequence (P05177 whole entry): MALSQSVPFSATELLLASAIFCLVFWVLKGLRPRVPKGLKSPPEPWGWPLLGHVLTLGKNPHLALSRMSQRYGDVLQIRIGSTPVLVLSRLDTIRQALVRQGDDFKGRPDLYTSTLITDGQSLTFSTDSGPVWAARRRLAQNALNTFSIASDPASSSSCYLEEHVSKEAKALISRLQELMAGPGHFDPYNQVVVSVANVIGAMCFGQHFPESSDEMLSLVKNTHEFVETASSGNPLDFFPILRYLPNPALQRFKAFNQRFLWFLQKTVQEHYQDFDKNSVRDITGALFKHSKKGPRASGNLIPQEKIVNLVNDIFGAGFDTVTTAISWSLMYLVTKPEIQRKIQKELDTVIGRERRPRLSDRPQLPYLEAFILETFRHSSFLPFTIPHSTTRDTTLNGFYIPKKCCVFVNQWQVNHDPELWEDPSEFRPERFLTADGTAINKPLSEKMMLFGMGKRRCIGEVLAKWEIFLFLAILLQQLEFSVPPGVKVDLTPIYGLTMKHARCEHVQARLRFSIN

Calls of active or inactive are those of the source.

Beta-galactosidase, sequence (Q8VNN2 whole entry): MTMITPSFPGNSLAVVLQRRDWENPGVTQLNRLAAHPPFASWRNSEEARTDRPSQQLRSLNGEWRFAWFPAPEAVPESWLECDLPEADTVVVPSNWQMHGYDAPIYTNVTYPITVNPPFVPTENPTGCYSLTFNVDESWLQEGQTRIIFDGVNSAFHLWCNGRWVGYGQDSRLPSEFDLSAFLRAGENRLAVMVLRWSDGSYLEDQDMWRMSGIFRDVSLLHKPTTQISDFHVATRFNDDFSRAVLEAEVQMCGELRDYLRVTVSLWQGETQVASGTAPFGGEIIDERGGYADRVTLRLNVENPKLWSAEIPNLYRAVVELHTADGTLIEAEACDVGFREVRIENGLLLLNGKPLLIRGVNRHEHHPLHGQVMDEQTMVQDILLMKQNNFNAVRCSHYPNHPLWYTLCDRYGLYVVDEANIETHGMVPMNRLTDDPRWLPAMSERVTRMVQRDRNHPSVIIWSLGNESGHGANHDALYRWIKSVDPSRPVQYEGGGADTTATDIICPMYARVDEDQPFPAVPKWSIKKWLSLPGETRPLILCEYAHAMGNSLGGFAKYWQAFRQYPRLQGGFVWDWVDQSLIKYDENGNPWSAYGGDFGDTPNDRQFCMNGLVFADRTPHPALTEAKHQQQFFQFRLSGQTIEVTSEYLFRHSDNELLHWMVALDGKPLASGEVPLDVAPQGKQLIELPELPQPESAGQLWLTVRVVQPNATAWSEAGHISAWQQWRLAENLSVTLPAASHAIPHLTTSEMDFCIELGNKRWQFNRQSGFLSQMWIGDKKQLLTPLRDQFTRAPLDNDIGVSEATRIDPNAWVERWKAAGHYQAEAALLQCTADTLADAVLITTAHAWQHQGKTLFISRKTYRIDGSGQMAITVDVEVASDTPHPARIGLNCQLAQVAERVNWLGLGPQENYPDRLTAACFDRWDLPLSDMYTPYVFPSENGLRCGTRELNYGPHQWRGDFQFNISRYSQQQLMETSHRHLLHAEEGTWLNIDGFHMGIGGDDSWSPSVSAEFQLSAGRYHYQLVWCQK
FAD-linked sulfhydryl oxidase ALR, sequence (P55789 whole entry): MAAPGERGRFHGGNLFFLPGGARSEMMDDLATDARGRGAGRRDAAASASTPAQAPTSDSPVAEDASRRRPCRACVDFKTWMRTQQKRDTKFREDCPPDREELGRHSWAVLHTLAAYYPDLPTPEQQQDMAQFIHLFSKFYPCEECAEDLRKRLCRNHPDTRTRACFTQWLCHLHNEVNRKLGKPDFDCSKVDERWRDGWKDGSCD

Take `COc1c(O)cc2oc(-c3ccc(O)c(O)c3)cc(=O)c2c1O` [EUPAFOLIN]: the results for the IC50 (at Aminopeptidase N; in [5]) were 15.6 µM (active) and > 96.6 µM (inactive), respectively. The EC50 was 93.1 µM (active) in series [1] and 36 µM (active) in [2]. The AC50 in series [3] is 0.23 µM (active); in series [4] it was 12.7 µM (active); on Caspase-6 it was 29.3 µM (active).
In the case of `NC1=NC(=O)/C(=C/c2cccs2)S1`, the figures for the AC50 (on Cytochrome P450 2C19; in series [4]; on Cytochrome P450 2C9) were 25.1 µM (inconclusive), 1.21 µM (active) and “inconclusive”, respectively.
With `CCOC(=O)C1=C2NC(=O)c3ccccc3N2C(=O)C1`, the figures for the EC50 (in series [1]; in series [2]; on Beta-galactosidase) were 89 µM (active), 38.8 µM (active) and > 40 µM (inactive), respectively. Also, in [6], the half-maximal inhibitory concentration (IC50) was 9.25 µM (active).
Consider `Cc1ccc(NC(=O)c2ccc(NCC3CCCO3)c([N+](=O)[O-])c2)cc1Cl` (centres undefined), for which the EC50 in series [7] and in [8] was > 99 µM (inactive) each time. For the same molecule, the IC50 in series [9] is 5.2 µM (active). Also, at Cytochrome P450 1A2, the AC50 was 14.1 µM (inconclusive).
Consider `O=c1oc2ccc3ccccc3c2cc1-c1nc2ccccc2o1`, for which the EC50 in series [1] is > 300 µM (not active); in series [2], > 300 µM (inconclusive); in [7] it was > 99 µM (inactive); in series [8], > 99 µM (inactive).
Regarding `O=[N+]([O-])c1ccc(C=CC=Cc2ccccc2)cc1`, the EC50 in series [7] and in series [8] was > 99 µM (inactive) in each case.

One may read the IC50 as the midpoint of a concentration-inhibition curve. In general, EC50 refers to the concentration giving half of the maximal effect. The AC50 is the midpoint of the concentration-response curve, whichever way the signal moves.
